Consider 5 molecules from ChEMBL document CHEMBL1126962, “Antagonists of luteinising hormone-releasing hormone (LHRH). Progress towards non-peptide leads” (1993).

Common to all, as to assay type: functional
Assay [1] has as its system Rattus norvegicus. As to the kind of experiment: Effective dose required to inhibit ovulation in normal cycling rats at a dose of 2 mg/kg.
The species entered for assay [2] is Rattus norvegicus. Nature of the assay: Effective dose required to inhibit ovulation in normal cycling rats.
Assay [3] has as its system Rattus norvegicus. As to the kind of experiment: Effective dose required to inhibit ovulation in normal cycling rats at 1 mg/kg.

Usually inhibition in vivo stands for the percentage by which the read-out fell short of the control. A higher inhibition in vivo goes with a response far below the control. Molecule `CC(C)C[C@@H]1NC(=O)[C@@H](CCCN=C(N)N)NC(=O)[C@@H]2CCC(=O)NCCCC[C@H](NC1=O)C(=O)N1CCC[C@H]1C(=O)N[C@H](C)C(=O)N[C@H](Cc1ccc(Cl)cc1)C(=O)N[C@H](Cc1ccc(Cl)cc1)C(=O)N[C@H](Cc1c[nH]c3ccccc13)C(=O)N[C@@H](CO)C(=O)N2` had an inhibition in vivo at 2 mg/kg with Rattus norvegicus [1] of 40%.
`CC(=O)N[C@H](Cc1ccc(Cl)cc1)C(=O)N[C@H](Cc1ccc(Cl)cc1)C(=O)N[C@H](Cc1c[nH]c2ccccc12)C(=O)N[C@@H](CO)C(=O)N[C@H]1CC(=O)NCCCC[C@@H](C(=O)N2CCC[C@H]2C(=O)N[C@H](C)C(N)=O)NC(=O)[C@H](CC(C)C)NC(=O)[C@@H](CCCN=C(N)N)NC1=O` gave an ED50 in the assay filed under Rattus norvegicus [2] of 180 ug rat-1.
In the assay on Rattus norvegicus [3], `CC(C)C[C@@H]1NC(=O)[C@@H](CCCN=C(N)N)NC(=O)[C@@H]2CCC(=O)NCCCC[C@H](NC1=O)C(=O)N1CCC[C@H]1C(=O)N(C)[C@H](C)C(=O)N[C@H](Cc1ccc(Cl)cc1)C(=O)N[C@H](Cc1ccc(Cl)cc1)C(=O)N[C@H](Cc1c[nH]c3ccccc13)C(=O)N[C@@H](CO)C(=O)N2` came in with an ED50 of 200 ug rat-1 and an inhibition in vivo at 1 mg/kg of 50%.
Take `CC(=O)N[C@H](Cc1ccc(Cl)cc1)C(=O)N[C@H](Cc1ccc(Cl)cc1)C(=O)N[C@H](Cc1c[nH]c2ccccc12)C(=O)N[C@@H](CO)C(=O)N[C@H]1CC(=O)NCCC[C@@H](C(=O)N2CCC[C@H]2C(=O)N[C@H](C)C(N)=O)NC(=O)[C@H](CC(C)C)NC(=O)[C@@H](CCCN=C(N)N)NC1=O`: in the assay listed under Rattus norvegicus [2], the ED50 came to 540 ug rat-1.
On the same count and under the same terms, then `CC(=O)N[C@H](Cc1ccc(Cl)cc1)C(=O)N[C@H](Cc1ccc(Cl)cc1)C(=O)N[C@H](Cc1c[nH]c2ccccc12)C(=O)N[C@@H](CO)C(=O)N[C@H]1CCC(=O)NCCCC[C@@H](C(=O)N2CCC[C@H]2C(=O)N[C@H](C)C(N)=O)NC(=O)[C@H](CC(C)C)NC(=O)[C@@H](CCCN=C(N)N)NC1=O`, with 90 ug rat-1.
